Assay results as given in patent EP2450046B1, “A MEDICINAL COMPOSITION FOR THE TREATMENT OF BRONCHITIS AND PREPARATION THEREOF” (Hebei Yiling Medicine Research Institute Co., Ltd., priority 2009, dated 2011).
Where two headings read alike, the source gives them in different places.

Key:
[1] = system: xylene-induced ear swelling in mice; experiment: Effect on xylene-induced ear swelling in mice; assay type: in vivo, Kunming male mice; details: Aspirin 0.2 g/kg i.g. q.d. 3 days; weight of right minus left ear piece; n=10
Source text: Sixty Kunming male mice of Grade II with the mean body weight of 19.77 ± 0.91 g, provided by the breeding farm of the Institute of Laboratory Animal Science, Chinese Academy of Medical Sciences, License number: SCXK (Jing) 2000-0006. • (1) The present medication to be tested, 6.25 g crude drugs/g, provided by […] Pharmaceutical Co. […] SFDA Approval No. Z-11; Lot number of the product: 060112; valid until December 2007. • (3) Aspirin enteric-coated tablet as a western medicine control, 0.3 g/tablet, produced by Yantai the Second Pharmaceutical Factory), lot number: 011102. The above-described medications were formulated with distilled water into the required concentrations in the experiment. Sixty healthy mice were randomly assigned into the following six groups with 10 animals per group: […] (2) the Aspirin group (0.2 g/kg); (3) the […] group (2 g crude drugs/kg); (4) the low dosage group of the present medication (L-dosage group, 3g crude drugs/kg); (5) the medium dosage group of the present medication (M-dosage group, 6g crude drugs/kg); (6)the high dosage group of the present medication (H-dosage group, 12g crude drugs/kg). […] Fifteen minutes later, the animal was sacrificed by dislocation. […] The degree of ear swelling for each mouse was calculated by subtraction of the weight of the left piece from that of the right piece. […]

[2] = system: carrageenan-induced swelling of rat's footpad; experiment: Effect on carrageenan-induced swelling of rat's footpad; assay type: in vivo, Wistar male rats; details: for Foot volume after inflammation / Foot volume, Difference / Swelling rate / inhibition at 150 mg/kg: Aspirin 0.15 g/kg i.g. q.d. 3 days; for inhibition at 150 mg/kg: Rattus norvegicus, po, read-out: Inhibition rate
Description: • (1) The present medication to be tested, 6.25g crude drugs/g, provided by […] Pharmaceutical Co. […] SFDA Approval No. Z-11; […] The above-described medications were prepared into the required concentrations with distilled water in the experiment. • (4) Carrageenan, from SIGMA, lot number: 117H0151, prepared into required concentrations for the experiment. Sixty while Wistar male rats of Grade I with the mean body weight of 157.05 ± 8.49 g, provided by Institute of Laboratory Animal Science, Chinese Academy of Medical Sciences, License number: […] The sixty healthy rats were randomly assigned into the following six groups: (1) the blank control group administered with distilled water (10 ml/kg); […] (3) the […] group (1.5 g crude drugs/kg); (4) the low dosage group of the present medication (L-dosage group, 2 g crude drugs/kg); (5) the medium dosage group of the present medication (M-dosage group, 4 g crude drugs/kg); (6)the high dosage group of the present medication (H-dosage group, 8 g crude drugs/kg). The volume of the left hind foot of each animal determined by capillary amplification method was used as the value prior to administration. […] Comparisons among the groups were performed on the difference between the left foot volumes before and after inflammation by t-test.

[3] = system: tampon-induced granuloma in rats; experiment: Effect on small tampon-induced granuloma in rats; assay type: in vivo; details: Aspirin 0.15 g/kg i.g. q.d. 7 days; n=10
Source text: Sixty Wistar […] of Grade II evenly composed of males and females with the mean body weight of 132.37 ± 6.31 g, provided by the breeding farm of the Institute of Laboratory Animal Science, Chinese […] of Medical Sciences, and License number: SCXK (Jing) 2000-0006. • (1) The present medication to be tested, 6.25 g crude drugs/g, provided by […] Pharmaceutical Co. […] No. Z-11; Lot number: 060112. • (3) Aspirin Enteric-coated Tablet as a western medicine control, 0.3 g/tablet, produced by Yantai the Second Pharmaceutical Factory), lot number: 051102. The medication was prepared to required concentrations with distilled water in the experiment. • (4) Ampicillin Sodium Injection (ASI), 0.5 g/bottle, Produced by North China Pharmaceutical Co., Ltd. lot number: F0111207. […] The average wet and dry weights of the post-inflammation granuloma for each of the groups were calculated, from which the original weight of the cotton ball had been subtracted, and were compared among the groups by t-test.

CC(=O)Oc1ccccc1C(=O)O [Aspirin]
Swelling rate [1]: 3.50 ± 0.71 mg
Foot volume after inflammation ([2]; 0.5h): 1.19 ± 0.04 mL
Foot volume, Difference ([2]; 0.5h): 0.21 ± 0.05 mL
Swelling rate ([2]; 0.5h): 21.4±5.49 %
Foot volume after inflammation ([2]; 1h): 1.23 ± 0.04 mL
Foot volume, Difference ([2]; 1h): 0.25 ± 0.03 mL
Swelling rate ([2]; 1h): 25.4±3.87 %
Foot volume after inflammation ([2]; 2h): 1.27 ± 0.02 mL
Foot volume, Difference ([2]; 2h): 0.29 ± 0.03 mL
Swelling rate ([2]; 2h): 29.7±4.00 %
Foot volume after inflammation ([2]; 4h): 1.30 ± 0.04 mL
Foot volume, Difference ([2]; 4h): 0.32 ± 0.04 mL
Swelling rate ([2]; 4h): 32.80±4.78 %
Foot volume after inflammation ([2]; 6h): 1.24 ± 0.03 mL
Foot volume, Difference ([2]; 6h): 0.26 ± 0.04 mL
Swelling rate ([2]; 6h): 26.26±3.95 %
Foot volume before inflammation ([2]; Aspirin group 0.15 g/kg, baseline, n=10): 0.98 ± 0.03 mL
inhibition at 150 mg/kg ([2]; 0.5h): 41.5%
inhibition at 150 mg/kg ([2]; 1h): 41.2%
inhibition at 150 mg/kg ([2]; 2h): 38.6%
inhibition at 150 mg/kg ([2]; 4h): 32.1%
inhibition at 150 mg/kg ([2]; 6h): 45.6%
Dry weight of granuloma [3]: 99.20 ± 10.16 mg
Wet weight of granuloma [3]: 457.85 ± 50.01 mg
